In EP0293133A2, “Microorganisms and processes for the manufacture of antifungal tri-yne carbonates” (Merck & Co., Inc., priority 1987, dated 1988) one finds MIC data, which are given here for 1 compound.

Common to all, as to assay: agar dilution assay, antifungal activity (MIC)
What all share (format): cell-based

One assay has as its system Ca. krusei. The following applies: Pichia kudriavzevii; Ca. krusei MY1020; yeast nitrogen base plus glucose agar, 28°C, 48 hours; read-out: MINIMUM INHIBITORY CONCENTRATION
On the procedure:
(§1) The antifungal activity of the compound of formula I was determined by an agar dilution assay as follows: […]
(§2) The compound of formula I was added to cooled, molten yeast nitrogen base plus glucose agar (1.0 ml of drug plus 9.0 ml agar). Appropriate solvent and media controls (drug free) also were prepared. Prepared plates were stored in the dark at room temperature overnight prior to use.
(§3) The yeast cultures, maintained in yeast maltose (YM) broth, were transferred to fresh YM medium and incubated overnight at 37°C with shaking (250 rpm). After incubation, each culture was diluted in sterile saline to yield final concentrations of 3 x 10⁵ to 3 x 10⁶ colony forming units (CFU)/ml. The isolates of Aspergillus and Penicillium were maintained on potato dextrose agar slants and spore suspensions made following vigourous shaking with sterile glass beads. The spore preparations were used as the inocula for these three filamentous fungi.
(§4) Each prepared plate was inoculated with 21 yeast-like and filamentous fungi using a Denley Multipoint Inoculator (Denley, Sussex, England). The inoculator delivers approximately 0.001 ml to the agar surface resulting in inoculation of from 3 x 10² to 3 x 10³ CFUs. The plates were incubated at 28°C for 48 hours. The minimum inhibitory concentrations (MICs) were recorded as the lowest concentration of drug showing no growth or less than three CFU/spot.

The next assay concerns Ca. guilliermondii. The following applies: Meyerozyma guilliermondii; Ca. guilliermondii MY1019; yeast nitrogen base plus glucose agar, 28°C, 48 hours; read-out: MINIMUM INHIBITORY CONCENTRATION
On the procedure:
as §1, §2, §3, §4

The next assay has as its system Sac. cerevisiae. The following applies: Saccharomyces cerevisiae; Sac. cerevisiae MY1027; yeast nitrogen base plus glucose agar, 28°C, 48 hours; read-out: MINIMUM INHIBITORY CONCENTRATION
The method, then: as §1, §2, §3, §4

A further assay concerns Candida albicans. The following applies: 48 h, 28°C, read-out: MINIMUM INHIBITORY CONCENTRATION
On the procedure:
as §1, §2, §3, §4

Another assay concerns Ca. tropicalis. The following applies: Candida tropicalis, 48 h, 28°C, read-out: MINIMUM INHIBITORY CONCENTRATION
On the procedure: as §1, §2, §3, §4

A further assay has as its system Penicillium italicum. Particulars: Penicillium italicum MF2819; spore inoculum, yeast nitrogen base plus glucose agar, 28°C, 48 hours; read-out: MINIMUM INHIBITORY CONCENTRATION
On the procedure:
as §1, §2, §3, §4

The subject of a further assay is Aspergillus fumigatus. The following applies: Aspergillus fumigatus MF4839; spore inoculum, yeast nitrogen base plus glucose agar, 28°C, 48 hours; read-out: MINIMUM INHIBITORY CONCENTRATION
On the procedure: as §1, §2, §3, §4

The subject of another assay is Ca. pseudotropicallis. Particulars: Ca. pseudotropicallis MY1040; yeast nitrogen base plus glucose agar, 28°C, 48 hours; read-out: MINIMUM INHIBITORY CONCENTRATION
The method, then: as §1, §2, §3, §4

The test system of the next assay is Ca. rugosa. The following applies: Diutina rugosa; Ca. rugosa MY1022; yeast nitrogen base plus glucose agar, 28°C, 48 hours; read-out: MINIMUM INHIBITORY CONCENTRATION
The method, then: as §1, §2, §3, §4

Another assay concerns Torulopsis glabrata. Particulars: Nakaseomyces glabratus; Torulopsis glabrata MY1059; yeast nitrogen base plus glucose agar, 28°C, 48 hours; read-out: MINIMUM INHIBITORY CONCENTRATION
On the procedure:
as §1, §2, §3, §4

The subject of the next assay is A. flavus. The following applies: Aspergillus flavus; A. flavus MF0383; spore inoculum, yeast nitrogen base plus glucose agar, 28°C, 48 hours; read-out: MINIMUM INHIBITORY CONCENTRATION
On the procedure:
as §1, §2, §3, §4

The subject of a further assay is Ca. parapsilosis. The following applies: Lodderomyces parapsilosis, 48 h, 28°C, read-out: MINIMUM INHIBITORY CONCENTRATION
The method, then:
as §1, §2, §3, §4

The next assay deals with Crypotococcus neoformans. The following applies: yeast nitrogen base plus glucose agar, 28°C, 48 hours, read-out: MINIMUM INHIBITORY CONCENTRATION
On the procedure:
as §1, §2, §3, §4

The next assay relates to Ca. stellatoidea. The following applies: Candida albicans; Ca. stellatoidea MY1018; yeast nitrogen base plus glucose agar, 28°C, 48 hours; read-out: MINIMUM INHIBITORY CONCENTRATION
The method, then:
as §1, §2, §3, §4

Read-outs that look alike come from different tables or passages of the source.

Take `C#CC#CC#CC(O)C1OC(=O)OC1CCCCCCC(=O)O` (stereo not drawn) [compound of formula I]: the MIC stood at 30 µg/mL in the assay on Ca. krusei; 7.5 µg/mL in the assay on Ca. guilliermondii; 1.88 µg/mL in the assay on Sac. cerevisiae; 7.5 µg/mL in the assay on Candida albicans (Ca. albicans MY0992, yeast nitrogen base plus glucose agar); 0.47 µg/mL in the assay with Candida albicans (Ca. albicans MY1013, yeast nitrogen base plus glucose agar); 0.47 µg/mL in the assay on Candida albicans (Ca. albicans MY1029, yeast nitrogen base plus glucose agar). Besides, the MIC in the assay on Candida albicans (Ca. albicans MY1055, yeast nitrogen base plus glucose agar) was 0.47 µg/mL; in the assay with Candida albicans (Candida albicans MY1058, yeast nitrogen base plus glucose agar), 0.47 µg/mL; in the assay on Ca. tropicalis (Ca. tropicalis MY1011, yeast nitrogen base plus glucose agar), 15 µg/mL; in the assay with Ca. tropicalis (Ca. tropicalis MY1012, yeast nitrogen base plus glucose agar), 1.88 µg/mL; with Penicillium italicum, 7.5 µg/mL; in the assay with Aspergillus fumigatus it was more than 30 µg/mL. In addition, the MIC in the assay on Ca. pseudotropicallis is 0.94 µg/mL; in the assay with Ca. rugosa, 7.5 µg/mL; in the assay with Torulopsis glabrata, 1.88 µg/mL; in the assay on A. flavus it was more than 30 µg/mL; in the assay with Ca. parapsilosis (Ca. parapsilosis MY1009, yeast nitrogen base plus glucose agar), 1.88 µg/mL; with Ca. parapsilosis (Ca. parapsilosis MY1010, yeast nitrogen base plus glucose agar), 0.47 µg/mL. Moreover, the results for the MIC in the assay with Crypotococcus neoformans (Cr. neoformans MY1146), with Crypotococcus neoformans (Crypotococcus neoformans MY1051) and in the assay on Ca. stellatoidea were 3.75 µg/mL, 1.88 µg/mL and 7.5 µg/mL, respectively.
